Test results published in patent US8017637B2, “Inhibitors of cdc phosphatases” (Ipsen Pharma S.A.S., priority 2004, dated 2011).
pIC50: −log10 of the molar value.

What was measured:
[1] = system: DU-145 lines (human prostate cancer cells); test: Anti-proliferative activity, WST1 colorimetric test, DU145 cells; format: cell-based; details: 96 hours treatment, up to 10 μM, read-out: IC50 on the cell proliferation of the DU-145 lines
Protocol: (§1) ii) Characterization of Anti-Proliferative Activity:
(§2) By way of example, the effect of a treatment by the compounds of the examples described previously on two lines of human Mia-Paca2 and DU145 cells will be studied. The cell lines DU145 (human prostate cancer cells) and Mia-PaCa2 (human pancreatic cancer cells) were acquired from the American Tissue Culture Collection (Rockville, Md., USA). The cells placed in 80 μl of Dulbecco's Modified Eagle medium (Gibco-Brl, Cergy-Pontoise, France) completed with 10% foetal calf serum inactivated by heating (Gibco-Brl, Cergy-Pontoise, France), 50,000 units/l of penicillin and 50 mg/l streptomycin (Gibco-Brl, Cergy-Pontoise, France), and 2 mM of glutamine (Gibco-Brl, Cergy-Pontoise, France) were seeded on a 96-well plate on day 0. The cells were treated on day 1 for 96 hours at increasing concentrations of each of the compounds to be tested up to 10 μM. At the end of the of this period, quantification of the cell proliferation is evaluated by a colorimetric test based on the cleavage of the tetrazolium salt WST1 by the mitochondrial dehydrogenases in the viable cells leading to the formation of formazan (Boehringer Mannheim, Meylan, France). These tests are carried out in duplicate with 8 determinations per concentration tested. For each compound to be tested, the values included in the linear part of the sigmoid were retained for linear regression analysis and used in order to estimate the inhibitory concentration IC50. The products are solubilized in dimethylsulphoxide (DMSO) at to 10^−2M and finally used in culture with 0.1% DMSO.

[2] = system: Mia-Paca2 lines (human pancreatic cancer cells); test: Anti-proliferative activity, WST1 colorimetric test, Mia-Paca2 cells; format: cell-based; details: MIA PaCa-2, 96 hours treatment, up to 10 μM, read-out: IC50 on the cell proliferation of the Mia-Paca2 lines
Protocol: as §1, §2

[3] = target: T1, purified recombinant enzyme Cdc25-C (MBP-Cdc25C) (Homo sapiens, UniProt P30307); test: Measurement of the phosphatase activity of the purified recombinant enzyme Cdc25C (OMFP dephosphorylation, fluorescence); format: biochemical; details: OMFP 500 μM, 4 hours at 30° C.
T1 construct: made in house
T1 sequence (P30307 1-473): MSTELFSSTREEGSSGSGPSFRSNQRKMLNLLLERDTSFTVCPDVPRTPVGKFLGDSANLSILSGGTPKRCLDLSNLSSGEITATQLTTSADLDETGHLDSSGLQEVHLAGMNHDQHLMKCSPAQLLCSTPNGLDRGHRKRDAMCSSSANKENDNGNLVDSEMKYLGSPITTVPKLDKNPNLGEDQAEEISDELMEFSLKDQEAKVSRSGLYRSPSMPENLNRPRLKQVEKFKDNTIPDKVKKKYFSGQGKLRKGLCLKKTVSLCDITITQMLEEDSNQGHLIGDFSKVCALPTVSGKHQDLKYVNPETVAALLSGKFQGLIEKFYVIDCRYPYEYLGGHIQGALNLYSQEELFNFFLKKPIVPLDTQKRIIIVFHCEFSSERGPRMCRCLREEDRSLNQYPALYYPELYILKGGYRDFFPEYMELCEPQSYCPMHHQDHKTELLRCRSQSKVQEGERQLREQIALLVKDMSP
Protocol: i) Measurement of the Phosphatase Activity of the Purified Recombinant Enzyme Cdc25C
The phosphatase activity of the protein MBP-Cdc25C is evaluated by the dephosphorylation of 3-O-methylfluorescein-phosphate (OMFP) to 3-O-methylfluorescein (OMF) with a determination of the fluorescence at 475 nm of the reaction product. This test makes it possible to identify inhibitors of the recombinant enzyme cdc25. The preparation of the fusion protein MBP-Cdc25C is described in the Patent Application PCT WO 01/44467.
The reaction is carried out in 384-well plate format at a final volume of 50 μl. The protein MBP-Cdc25C (prepared as described above) is preserved in the following elution buffer: 20 mM Tris-HCl pH 7.4; 250 mM NaCl; 1 mM EDTA; 1 mM of dithiothreitol (DTT); 10 mM maltose. It is diluted to a concentration of 60 μM in the following reaction buffer: 50 mM Tris-HCl pH 8.2; 50 mM NaCl; 1 mM DTT; 20% glycerol. Measurement of the background noise is carried out with the buffer without the addition of the enzyme. The products are tested at decreasing concentrations starting from 40 μM. The reaction is initiated by the addition of an OMFP solution at 500 μM final (prepared extemporaneously from a 12.5 mM stock solution in 100% DMSO (Sigma #M2629)). After 4 hours at 30° C. in a single-use 384-well plate, the fluorescence measured at OD 475 nm is read using a Victor^2 plate reader (EGG-Wallac). The determination of the concentration inhibiting the enzyme reaction by 50% is calculated from three independent experiments. Only the values contained in the linear part of the sigmoid are retained for linear regression analysis.

SMILES	melting point [°C]	pIC50 [1]	pIC50 [2]	pIC50 [3]
CN(CCCNC1=CC(=O)c2nc(-c3cccc(Cl)c3)oc2C1=O)CCCNC1=CC(=O)c2nc(-c3cccc(Cl)c3)oc2C1=O [Example 14, 6.6′-[(methylimino)bis(propane-3,1-diylimino)]-bis[2-(3-chlorophenyl)-1,3-benzoxazole-4,7-dione]]	196 to 197	≥ 5.00	≥ 5.00	≥ 6.00
Cc1nc2c(s1)C(=O)C=C(NCCCN(CCCNC1=CC(=O)c3sc(C)nc3C1=O)CCCNC1=CC(=O)c3sc(C)nc3C1=O)C2=O [Example 18]	131 to 132	≥ 5.00	≥ 5.00	≥ 6.00
Cc1nc2c(s1)C(=O)C=C(NCCN(C)CCNC1=CC(=O)c3sc(C)nc3C1=O)C2=O [Example 2, 5.5′-[(methylimino)bis(ethane-2,1-diylimino)]bis(2-methyl-1,3-benzothiazole-4,7-dione)]	188 to 190	≥ 5.00	≥ 5.00	≥ 6.00
Cc1nc2c(s1)C(=O)C(NCCCN(C)CCCNC1=CC(=O)c3nc(C)sc3C1=O)=CC2=O [Example 5, 6.6′-[(methylimino)bis(propane-3,1-diylimino)]bis(2-methyl-1,3-benzothiazole-4,7-dione)]	91 to 93	≥ 5.00	≥ 5.00	≥ 6.00
CN(CCCNC1=CC(=O)c2scnc2C1=O)CCCNC1=CC(=O)c2scnc2C1=O [Example 25, 5.5′-[(methylimino)bis(propane-3,1-diylimino)]bis(1,3-benzothiazole-4,7-dione)]	223 to 224	≥ 5.00	≥ 5.00	≥ 6.00
Cc1nc2c(s1)C(=O)C=C(NCC1CCC(CNC3=CC(=O)c4sc(C)nc4C3=O)CC1)C2=O (stereo not shown) [Example 20, 5.5′-[cyclohexane-1,4-diylbis(methyleneimino)]bis(2-methyl-1,3-benzothiazole-4,7-dione)]	> 240	≥ 5.00	≥ 5.00	≥ 6.00
Cc1nc2c(s1)C(=O)C=C(NCCCN(C)CCCNC1=CC(=O)c3sc(C)nc3C1=O)C2=O [Example 1, 5.5′-[(methylimino)bis(propane-3,1-diylimino)]bis(2-methyl-1,3-benzothiazole-4,7-dione)]	94 to 96	≥ 5.00	≥ 5.00	≥ 6.00
CN(CCCNC1=CC(=O)c2nc(Cc3c(F)cccc3Cl)oc2C1=O)CCCNC1=CC(=O)c2nc(Cc3c(F)cccc3Cl)oc2C1=O [Example 10, 6.6′-[(methylimino)bis(propane-3,1-diylimino)]bis[2-(2-chloro-6-fluorobenzyl)-1,3-benzoxazole-4,7-dione]]	165 to 167	≥ 5.00	≥ 5.00	≥ 6.00
CN(CCCNC1=CC(=O)c2sc(C(=O)NCCCN3CCCC3=O)nc2C1=O)CCCNC1=CC(=O)c2sc(C(=O)NCCCN3CCCC3=O)nc2C1=O [Example 7, 5.5′-[(methylimino)bis(propane-3,1-diylimino)]bis{4,7-dioxo-N-[3-(2-oxopyrrolidin-1-yl)propyl]-4,7-dihydro-1,3-benzothiazole-2-carboxamide}]	185 to 186	≥ 5.00	≥ 5.00	≥ 6.00

Continued, values first:

melting point [°C]	pIC50 [1]	pIC50 [2]	pIC50 [3]	SMILES
141 to 142	≥ 5.00	≥ 5.00	≥ 6.00	COc1ccc(NC(=O)c2nc3c(s2)C(=O)C=C(NCCCN(C)CCCNC2=CC(=O)c4sc(C)nc4C2=O)C3=O)cc1 [Example 41, N-(4-methoxyphenyl)-5-{[3-(methyl{3-[(2-methyl-4,7-dioxo-4,7-dihydro-1,3-benzothiazol-5-yl)amino]propyl}amino)propyl]amino}-4,7-dioxo-4,7-dihydro-1,3-benzothiazole-2-carboxamide]
107 to 108	≥ 5.00	≥ 5.00	≥ 6.00	CCNC(=O)c1nc2c(s1)C(=O)C=C(NCCCN(C)CCCNC1=CC(=O)c3sc(C)nc3C1=O)C2=O [Example 43, N-ethyl-5-{[3-(methyl{3-[(2-methyl-4,7-dioxo-4,7-dihydro-1,3-benzothiazol-5-yl)amino]propyl}amino)propyl]amino}-4,7-dioxo-4,7-dihydro-1,3-benzothiazole-2-carboxamide]
174 to 175	≥ 5.00	≥ 5.00	≥ 6.00	COc1ccc(CNC(=O)c2nc3c(s2)C(=O)C=C(NCCCN(C)CCCNC2=CC(=O)c4sc(C(=O)NCc5ccc(OC)cc5)nc4C2=O)C3=O)cc1 [Example 33, 5.5′-[(methylimino)bis(propane-3,1-diylimino)]bis[N-(4-methoxybenzyl)-4,7-dioxo-4,7-dihydro-1,3-benzothiazole-2-carboxamide]]
121 to 122	≥ 5.00	≥ 5.00	≥ 6.00	Cc1nc2c(s1)C(=O)C(NCCCN(C)CCCNC1=CC(=O)c3sc(C(=O)N4CCN(C(=O)C5CCCO5)CC4)nc3C1=O)=CC2=O (stereo not shown) [Example 42, 5-{[3-(methyl{3-[(2-methyl-4,7-dioxo-4,7-dihydro-1,3-benzothiazol-6-yl)amino]propyl}amino)propyl]amino}-2-{[4-(tetrahydrofuran-2-ylcarbonyl)piperazin-1-yl]carbonyl}-1,3-benzothiazole-4,7-dione]
145 to 146	≥ 5.00	≥ 5.00	≥ 6.00	CN(CCCNC1=CC(=O)c2sc(C(=O)NC3CCCCC3)nc2C1=O)CCCNC1=CC(=O)c2sc(C(=O)NC3CCCCC3)nc2C1=O [Example 35, 5.5′-[(methylimino)bis(propane-3,1-diylimino)]bis(N-cyclohexyl-4,7-dioxo-4,7-dihydro-1,3-benzothiazole-2-carboxamide)]
202 to 203	≥ 5.00	≥ 5.00	≥ 6.00	COc1ccc(C(=O)N2CCN(C(=O)c3nc4c(s3)C(=O)C=C(NCCCN(C)CCCNC3=CC(=O)c5sc(C(=O)N6CCN(C(=O)c7ccc(OC)cc7)CC6)nc5C3=O)C4=O)CC2)cc1 [Example 36, 5.5′-[(methylimino)bis(propane-3,1-diylimino)]bis(2-([4-(4-methoxybenzoyl)piperazin-1-yl]carbonyl)-1,3-benzothiazole-4,7-dione)]
207 to 208	≥ 5.00	≥ 5.00	≥ 6.00	CN(CCCNC1=CC(=O)c2sc(C(=O)N3CCOCC3)nc2C1=O)CCCNC1=CC(=O)c2sc(C(=O)N3CCOCC3)nc2C1=O [Example 26, 5.5′-[(methylimino)bis(propane-3,1-diylimino)]bis[2-(morpholin-4-ylcarbonyl)-1,3-benzothiazole-4,7-dione]]
